Experiments:
Assay in all cases: Competitive isoTOP-ABPP in situ (fragment-treated cells)
Type in all cases: cell-based
Details in all cases: 200 μM, insitu
[1] = biological target: cysteines in MDA-MB-231 and Ramos cells (Homo sapiens, UniProt Q13526)
[2] = biological target: T1, cysteines in MDA-MB-231 and Ramos cells (Homo sapiens, UniProt Q96CM8)
T1 sequence (Q96CM8 42-615): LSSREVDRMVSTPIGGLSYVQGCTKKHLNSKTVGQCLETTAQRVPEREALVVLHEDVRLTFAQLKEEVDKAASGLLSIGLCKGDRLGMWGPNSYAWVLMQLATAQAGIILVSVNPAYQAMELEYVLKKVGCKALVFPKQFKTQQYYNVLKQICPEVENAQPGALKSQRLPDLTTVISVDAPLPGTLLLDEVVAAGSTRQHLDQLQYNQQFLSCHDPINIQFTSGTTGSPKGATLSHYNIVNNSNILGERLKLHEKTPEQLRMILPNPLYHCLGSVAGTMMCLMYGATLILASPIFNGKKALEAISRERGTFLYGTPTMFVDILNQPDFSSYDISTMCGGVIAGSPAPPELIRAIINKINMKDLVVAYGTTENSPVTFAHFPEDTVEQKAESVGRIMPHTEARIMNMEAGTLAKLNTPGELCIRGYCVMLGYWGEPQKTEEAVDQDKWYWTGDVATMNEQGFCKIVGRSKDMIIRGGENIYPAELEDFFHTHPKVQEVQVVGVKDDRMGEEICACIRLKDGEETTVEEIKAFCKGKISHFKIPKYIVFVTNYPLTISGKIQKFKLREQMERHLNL

[3] = biological target: T2, cysteines in MDA-MB-231 and Ramos cells (Homo sapiens, UniProt P23919)
T2 sequence (P23919 1-212): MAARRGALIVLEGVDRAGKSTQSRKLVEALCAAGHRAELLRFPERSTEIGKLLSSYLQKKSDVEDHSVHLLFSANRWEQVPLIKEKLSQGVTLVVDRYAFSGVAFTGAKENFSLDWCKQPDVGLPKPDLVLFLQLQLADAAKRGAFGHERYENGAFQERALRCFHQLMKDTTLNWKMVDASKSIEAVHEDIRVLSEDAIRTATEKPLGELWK

[4] = biological target: cysteines in MDA-MB-231 and Ramos cells (Homo sapiens, UniProt O00299)
[5] = biological target: T3, cysteines in MDA-MB-231 and Ramos cells (Homo sapiens, UniProt Q9NYL9)
T3 sequence (Q9NYL9 1-352): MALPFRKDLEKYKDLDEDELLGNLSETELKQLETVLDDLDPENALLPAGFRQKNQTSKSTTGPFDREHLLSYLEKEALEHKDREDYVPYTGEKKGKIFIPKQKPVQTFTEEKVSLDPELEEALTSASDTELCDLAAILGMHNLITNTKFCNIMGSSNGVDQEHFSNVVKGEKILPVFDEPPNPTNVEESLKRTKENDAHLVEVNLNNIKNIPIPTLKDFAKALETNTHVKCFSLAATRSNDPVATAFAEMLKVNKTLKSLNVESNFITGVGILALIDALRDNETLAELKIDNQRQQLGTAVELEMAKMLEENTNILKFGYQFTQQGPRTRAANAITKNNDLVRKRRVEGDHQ

[6] = biological target: T4, cysteines in MDA-MB-231 and Ramos cells (Homo sapiens, UniProt Q96HE7)
T4 sequence (Q96HE7 24-468): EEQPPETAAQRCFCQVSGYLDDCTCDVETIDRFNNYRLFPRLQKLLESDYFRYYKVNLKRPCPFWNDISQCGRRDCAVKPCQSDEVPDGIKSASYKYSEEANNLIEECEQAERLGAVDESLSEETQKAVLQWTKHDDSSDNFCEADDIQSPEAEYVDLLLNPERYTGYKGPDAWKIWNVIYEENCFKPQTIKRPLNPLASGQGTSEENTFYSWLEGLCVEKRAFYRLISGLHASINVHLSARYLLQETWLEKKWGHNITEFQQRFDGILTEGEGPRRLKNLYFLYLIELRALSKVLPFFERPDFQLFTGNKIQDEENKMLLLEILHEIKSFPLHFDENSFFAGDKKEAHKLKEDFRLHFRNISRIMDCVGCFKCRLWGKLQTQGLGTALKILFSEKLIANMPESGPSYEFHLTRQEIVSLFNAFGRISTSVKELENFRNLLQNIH

[7] = biological target: cysteines in MDA-MB-231 and Ramos cells (Homo sapiens, UniProt Q15365)
[8] = biological target: T5, cysteines in MDA-MB-231 and Ramos cells (Homo sapiens, UniProt Q9UKF6)
T5 sequence (Q9UKF6 1-684): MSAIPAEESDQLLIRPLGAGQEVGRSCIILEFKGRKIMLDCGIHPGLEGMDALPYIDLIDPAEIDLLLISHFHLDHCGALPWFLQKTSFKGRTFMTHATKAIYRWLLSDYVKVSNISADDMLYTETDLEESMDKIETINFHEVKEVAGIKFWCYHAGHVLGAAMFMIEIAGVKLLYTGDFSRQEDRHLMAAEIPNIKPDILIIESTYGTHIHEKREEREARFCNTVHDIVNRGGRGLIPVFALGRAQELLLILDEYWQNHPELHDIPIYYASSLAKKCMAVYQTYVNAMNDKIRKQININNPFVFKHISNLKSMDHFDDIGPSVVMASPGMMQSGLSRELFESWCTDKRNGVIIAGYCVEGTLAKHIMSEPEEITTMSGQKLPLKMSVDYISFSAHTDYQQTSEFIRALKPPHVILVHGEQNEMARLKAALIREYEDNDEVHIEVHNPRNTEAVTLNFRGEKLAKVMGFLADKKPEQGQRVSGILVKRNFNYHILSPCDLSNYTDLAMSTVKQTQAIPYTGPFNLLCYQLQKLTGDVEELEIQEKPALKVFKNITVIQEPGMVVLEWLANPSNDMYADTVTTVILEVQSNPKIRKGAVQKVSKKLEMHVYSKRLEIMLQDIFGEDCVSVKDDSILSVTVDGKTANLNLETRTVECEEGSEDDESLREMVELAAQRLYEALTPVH

cysteines in MDA-MB-231 and Ramos cells (Homo sapiens, UniProt Q15365), sequence (Q15365 whole entry): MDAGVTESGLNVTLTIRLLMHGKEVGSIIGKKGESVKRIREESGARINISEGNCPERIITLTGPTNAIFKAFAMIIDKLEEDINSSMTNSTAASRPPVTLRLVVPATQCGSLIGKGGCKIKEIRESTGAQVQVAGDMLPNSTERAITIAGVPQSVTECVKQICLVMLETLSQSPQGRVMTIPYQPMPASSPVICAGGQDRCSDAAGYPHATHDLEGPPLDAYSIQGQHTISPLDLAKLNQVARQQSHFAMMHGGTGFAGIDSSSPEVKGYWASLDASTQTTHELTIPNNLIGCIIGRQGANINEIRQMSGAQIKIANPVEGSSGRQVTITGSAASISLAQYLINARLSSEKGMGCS
cysteines in MDA-MB-231 and Ramos cells (Homo sapiens, UniProt Q13526), sequence (Q13526 whole entry): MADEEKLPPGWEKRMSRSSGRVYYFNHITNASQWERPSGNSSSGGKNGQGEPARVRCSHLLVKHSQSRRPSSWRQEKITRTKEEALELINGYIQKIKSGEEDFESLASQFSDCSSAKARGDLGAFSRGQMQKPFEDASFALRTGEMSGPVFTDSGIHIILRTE

| isoTOP-ABPP ratio Q13526_C113 ([1]; ramos) | isoTOP-ABPP ratio Q96CM8_C64 ([2]; ramos) | isoTOP-ABPP ratio P23919_C117 ([3]; ramos) | isoTOP-ABPP ratio O00299_C24 ([4]; ramos) | isoTOP-ABPP ratio Q9NYL9_C132 ([5]; ramos) | isoTOP-ABPP ratio Q96HE7_C37 ([6]; ramos) | isoTOP-ABPP ratio Q96HE7_C241 ([6]; ramos) | isoTOP-ABPP ratio Q15365_C194 ([7]; ramos) | isoTOP-ABPP ratio Q9UKF6_C498 ([8]; ramos) | isoTOP-ABPP ratio Q13526_C113 [1]; 231 | isoTOP-ABPP ratio Q96CM8_C64 [2]; 231 | isoTOP-ABPP ratio P23919_C163 [3]; 231 | isoTOP-ABPP ratio O00299_C24 [4]; 231 | isoTOP-ABPP ratio Q9NYL9_C132 [5]; 231 | isoTOP-ABPP ratio Q96HE7_C37 [6]; 231 | isoTOP-ABPP ratio Q96HE7_C241 [6]; 231 | isoTOP-ABPP ratio Q15365_C194 [7]; 231 | isoTOP-ABPP ratio Q9UKF6_C498 [8]; 231 | SMILES |
| --- | --- | --- | --- | --- | --- | --- | --- | --- | --- | --- | --- | --- | --- | --- | --- | --- | --- | --- |
| 1.0 | 2.3 | 1.6 | 1.1 | 0.9 | 2.1 | 1.3 | 1.0 | 2.3 |  |  |  |  |  |  |  |  |  | O=C(CCl)N1CCN(CC(=O)N2CCOCC2)CC1 [compound 29] |
|  |  |  |  |  |  |  |  |  | 0.6 | 0.8 | 0.2 | 0.6 | 0.3 | 0.4 | 0.7 | 0.3 | 1.0 | Cc1ccc(C=C(C#N)C(=O)NCCN2CCOCC2)cc1 [compound 41] |

Source: patent publication US10670605B2, “Cysteine reactive probes and uses thereof” (The Scripps Research Institute, priority 2015, dated 2020)
